# Test results taken from ChEMBL document CHEMBL4834397 (J Med Chem, 2021).
# Tests used:
# [1] = Solubility of compound in aqueous buffer at pH 6.8 by HPLC analysis; format: physicochemical
# Cytochrome P450 2C9 = Cytochrome P450 2C9 (Homo sapiens, UniProt P11712); assay: Reversible inhibition of CYP2C9 in human liver microsomes using […] as substrate incubated for 10 mins in presence of NADPH by LC-MS analysis; format: ADME
# Cytochrome P450 2D6 = Cytochrome P450 2D6 (Homo sapiens, UniProt P10635); assay: Reversible inhibition of CYP2D6 in human liver microsomes using […] as substrate incubated for 10 mins in presence of NADPH by LC-MS analysis; format: ADME
# Chain of Cytochrome P450 2D6 (P10635 whole entry): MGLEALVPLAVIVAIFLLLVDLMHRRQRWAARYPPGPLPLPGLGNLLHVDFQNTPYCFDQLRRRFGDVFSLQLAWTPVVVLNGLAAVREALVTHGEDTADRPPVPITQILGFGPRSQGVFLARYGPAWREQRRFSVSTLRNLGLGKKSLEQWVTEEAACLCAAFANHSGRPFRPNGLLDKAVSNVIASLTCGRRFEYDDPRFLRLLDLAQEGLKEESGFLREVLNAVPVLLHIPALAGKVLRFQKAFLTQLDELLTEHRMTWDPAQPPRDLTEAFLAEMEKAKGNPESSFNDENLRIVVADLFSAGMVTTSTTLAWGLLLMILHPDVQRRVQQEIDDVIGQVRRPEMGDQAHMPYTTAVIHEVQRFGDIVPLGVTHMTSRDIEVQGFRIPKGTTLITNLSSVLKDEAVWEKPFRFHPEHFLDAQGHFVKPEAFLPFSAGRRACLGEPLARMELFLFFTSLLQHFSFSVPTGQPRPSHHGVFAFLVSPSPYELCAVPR
# [2] = target: Voltage-gated inwardly rectifying potassium channel KCNH2 (Homo sapiens, UniProt Q12809); assay: Displacement of [3H]dofetilide from recombinant human ERG stably expressed in HEK293 cell membranes measured after 90 mins by microbeta liquid scintillation counting method; parameters: species or system Cell membrane
# Chain of Voltage-gated inwardly rectifying potassium channel KCNH2 (Q12809 whole entry): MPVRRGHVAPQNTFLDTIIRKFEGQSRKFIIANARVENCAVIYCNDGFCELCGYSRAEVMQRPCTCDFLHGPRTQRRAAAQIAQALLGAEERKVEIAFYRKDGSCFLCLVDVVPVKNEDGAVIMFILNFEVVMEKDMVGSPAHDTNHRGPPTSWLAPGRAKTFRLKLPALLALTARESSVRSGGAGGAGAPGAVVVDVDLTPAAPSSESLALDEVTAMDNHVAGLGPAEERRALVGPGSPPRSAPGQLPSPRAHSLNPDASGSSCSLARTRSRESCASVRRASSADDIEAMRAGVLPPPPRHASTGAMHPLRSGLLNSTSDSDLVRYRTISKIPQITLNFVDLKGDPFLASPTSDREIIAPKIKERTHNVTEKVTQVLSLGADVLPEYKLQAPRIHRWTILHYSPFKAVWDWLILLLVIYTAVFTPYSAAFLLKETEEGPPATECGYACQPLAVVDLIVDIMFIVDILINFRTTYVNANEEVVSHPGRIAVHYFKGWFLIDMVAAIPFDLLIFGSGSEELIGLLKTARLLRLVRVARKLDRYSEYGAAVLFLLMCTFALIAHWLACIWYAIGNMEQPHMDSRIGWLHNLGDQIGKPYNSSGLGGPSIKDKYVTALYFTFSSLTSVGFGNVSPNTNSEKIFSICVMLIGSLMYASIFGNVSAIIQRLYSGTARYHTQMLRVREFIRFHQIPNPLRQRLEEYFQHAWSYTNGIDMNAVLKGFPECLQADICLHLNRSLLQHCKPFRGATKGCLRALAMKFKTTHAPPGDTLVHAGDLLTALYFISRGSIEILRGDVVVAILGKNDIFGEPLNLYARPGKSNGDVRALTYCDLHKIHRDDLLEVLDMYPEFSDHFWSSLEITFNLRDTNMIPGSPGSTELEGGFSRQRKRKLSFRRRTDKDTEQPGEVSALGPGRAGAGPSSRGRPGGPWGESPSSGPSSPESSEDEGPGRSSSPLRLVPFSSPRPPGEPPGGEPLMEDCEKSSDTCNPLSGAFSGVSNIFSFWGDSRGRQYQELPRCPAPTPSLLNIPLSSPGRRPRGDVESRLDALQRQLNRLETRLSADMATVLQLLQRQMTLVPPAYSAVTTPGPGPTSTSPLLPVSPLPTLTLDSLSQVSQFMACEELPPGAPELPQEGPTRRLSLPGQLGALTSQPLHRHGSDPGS
# Cytochrome P450 3A5 = Cytochrome P450 3A5 (Homo sapiens, UniProt P20815); assay: Reversible inhibition of CYP3A5 in human liver microsomes using midazolam as substrate incubated for 10 mins in presence of NADPH by LC-MS analysis; format: ADME
# Chain of Cytochrome P450 3A5 (P20815 whole entry): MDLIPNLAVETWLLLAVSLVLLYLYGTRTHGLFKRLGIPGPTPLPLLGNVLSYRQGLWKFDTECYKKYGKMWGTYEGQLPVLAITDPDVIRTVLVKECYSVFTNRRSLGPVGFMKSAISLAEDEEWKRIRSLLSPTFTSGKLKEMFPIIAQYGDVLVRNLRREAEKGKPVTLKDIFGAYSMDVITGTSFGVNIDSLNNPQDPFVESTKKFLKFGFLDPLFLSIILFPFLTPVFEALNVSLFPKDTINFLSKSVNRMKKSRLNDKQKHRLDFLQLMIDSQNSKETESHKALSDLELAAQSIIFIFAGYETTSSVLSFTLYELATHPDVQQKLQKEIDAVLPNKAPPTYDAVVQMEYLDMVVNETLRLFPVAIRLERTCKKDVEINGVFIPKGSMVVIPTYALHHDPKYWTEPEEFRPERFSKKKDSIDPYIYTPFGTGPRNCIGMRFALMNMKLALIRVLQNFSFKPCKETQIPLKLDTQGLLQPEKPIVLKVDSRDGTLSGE
# [3] = Half life in rat liver microsomes in presence of NADPH; format: ADME, Microsome
# Chain of Cytochrome P450 2C9 (P11712 whole entry): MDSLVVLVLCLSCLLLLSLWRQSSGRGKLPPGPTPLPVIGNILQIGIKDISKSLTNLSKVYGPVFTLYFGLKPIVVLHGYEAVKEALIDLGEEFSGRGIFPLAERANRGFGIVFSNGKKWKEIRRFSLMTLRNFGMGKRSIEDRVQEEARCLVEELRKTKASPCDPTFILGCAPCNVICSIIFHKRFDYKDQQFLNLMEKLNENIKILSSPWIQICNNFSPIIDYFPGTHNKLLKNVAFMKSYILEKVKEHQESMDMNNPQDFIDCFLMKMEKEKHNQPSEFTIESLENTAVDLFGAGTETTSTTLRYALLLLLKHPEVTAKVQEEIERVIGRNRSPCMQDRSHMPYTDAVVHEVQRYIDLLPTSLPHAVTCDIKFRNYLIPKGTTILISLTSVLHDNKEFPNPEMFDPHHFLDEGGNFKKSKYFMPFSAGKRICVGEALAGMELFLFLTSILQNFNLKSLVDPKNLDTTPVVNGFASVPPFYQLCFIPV
Structure (SMILES),solubility [1] [µM],IC50 (Cytochrome P450 2C9) [µM],IC50 (Cytochrome P450 2D6) [µM],IC50 (Cytochrome P450 3A5) [µM],half-life [3] [min],IC50 [2] [µM]
N[C@@H](CC(=O)O)Cn1nnc(-c2ccc(COCc3ccccc3)cc2)n1,166,–,–,–,–,–
N[C@@H](CC(=O)O)Cn1nnc(-c2ccc(Oc3nc4ccccc4s3)cc2)n1,35,–,–,–,–,–
O=C(O)CNCCn1nnc(-c2ccc(Oc3ccc(Cl)cc3)cc2)n1,–,–,–,–,142,–
N[C@H](CC(=O)O)Cn1nnc(-c2ccc(Oc3ncc(Cl)cc3F)cc2)n1,398,–,–,–,–,–
C[C@H](Cc1ccccc1)Oc1ccc(-c2nnn(C[C@@H](N)CC(=O)O)n2)cc1,391,–,–,–,–,–
N[C@H](CC(=O)O)Cn1nnc(-c2ccc(Oc3ccc(-c4ncco4)cc3)cc2)n1,17,–,–,–,–,–
N[C@H](CC(=O)O)Cn1nnc(-c2ccc(Oc3ccc(Cl)cn3)cc2)n1,344,–,–,–,–,–
COc1cnc(Oc2ccc(-c3nnn(C[C@H](N)CC(=O)O)n3)cc2)nc1,> 1000,–,–,–,–,–
N[C@H](CC(=O)O)Cn1nnc(-c2ccc(Oc3ccc(F)cc3)cc2)n1,135,–,–,–,–,–
CCCCCOc1ccc(-c2nnn(C[C@H](N)CC(=O)O)n2)cc1,65,–,–,–,–,–
N[C@H](CC(=O)O)Cn1nnc(-c2ccc(Oc3nc4ccccc4s3)cc2)n1,23,–,–,–,–,–
N[C@H](CC(=O)O)Cn1nnc(-c2ccc(OCCc3ccccc3)cc2)n1,23,–,–,–,–,–

# Further lines, with some results ahead:
solubility [1] [µM],IC50 (Cytochrome P450 2C9) [µM],IC50 (Cytochrome P450 2D6) [µM],IC50 (Cytochrome P450 3A5) [µM],half-life [3] [min],Structure (SMILES),IC50 [2] [µM]
–,> 20,> 20,> 20,33,C[C@@H](N)Cn1nnc(-c2ccc(Oc3ccc(Cl)cc3)cc2)n1,> 30
–,> 20,> 20,> 20,> 55,CC(=O)NCCn1nnc(-c2ccc(Oc3ccc(Cl)cc3)cc2)n1,> 30
–,> 20,> 20,> 20,30,NCCCn1nnc(-c2ccc(Oc3ccc(Cl)cc3)cc2)n1,4.8
–,> 20,> 20,> 20,114,O=C(O)CCn1nnc(-c2ccc(Oc3ccc(Cl)cc3)cc2)n1,> 30
–,–,–,–,> 55,N[C@@H](Cn1nnc(-c2ccc(Oc3ccc(Cl)cc3)cc2)n1)C(=O)O,–
26,–,–,–,190,N[C@@H](CC(=O)O)Cn1nnc(-c2ccc(Oc3ccc(Cl)cc3)cc2)n1,–
–,–,–,–,15,NCCn1nnc(-c2ccc(Oc3ccc(Cl)cc3)cc2)n1,–
–,> 20,> 20,> 20,405,O=C(O)CCCn1nnc(-c2ccc(Oc3ccc(Cl)cc3)cc2)n1,> 30
28,–,–,–,240,N[C@H](CC(=O)O)Cn1nnc(-c2ccc(Oc3ccc(Cl)cc3)cc2)n1,–
–,1.4,14,> 20,5,Cc1ccc(Oc2ccc(-c3nnn(CCN)n3)cc2)cc1,5.8
–,2,11,> 20,15,C[C@H](CN)n1nnc(-c2ccc(Oc3ccc(Cl)cc3)cc2)n1,> 30
